From patent publication US20240150335A1, “FUSED RING DERIVATIVES CONTAINING 1,4-OXAZEPANE” (MEDSHINE DISCOVERY INC., priority 2021, published 2024)

Columns and labels:
[1] = target: DPP1 of U937 cells (Homo sapiens (Human), UniProt P53634); assay: Activity test of inhibiting DPP1 in U937 cells; assay type: cell-based; settings: Gly-Phe-AFC probe, read-out: IC50, inhibitory activity on DPP1 of U937 cells
Experimental: Experimental Example 2: Activity Test of Inhibiting DPP1 in U937 Cells
Experimental Materials: • 1) Experimental reagents and consumables
The cell plate was placed in a carbon dioxide incubator for 1 day; • (3) after incubation for 1 hour, 100 μM Gly-Phe-AFC probe solution was added thereto, that is, 60 mM Gly-Phe-AFC probe stock solution was diluted with culture medium to 500 μM working solution; the working solution in 10 μL per well was transferred into the cell plate, and the cell plate was incubated in a carbon dioxide incubator for 1 hour;
3) the plate was read, and the data were analyzed: • (1) plate reading: after the cell incubation was completed, the cell plate was taken out, and the plate was read on Victor Nivo.
Using the equation (Sample−Min)/(Max−Min)×100% to convert the raw data into inhibition rate, the IC50 value might be obtained by curve fitting with four parameters (obtained by “log (inhibitor) vs. response—Variable slope” mode in GraphPad Prism).

[2] = target: Recombinant human cathepsin C/DPP1; assay: Inhibition effect test of DPP1 enzyme activity; assay type: biochemical; settings: recombinant human cathepsin C/DPP1, Gly-Arg-AMC substrate 12.5 μM, 25° C. 60 minutes; read-out: IC50, inhibitory activity on DPP1 enzyme
Experimental: Experimental Example 1: Inhibition Effect Test of DPP1 Enzyme Activity
Recombinant human cathepsin C/DPP1 was purchased from R&D Systems;
Recombinant human cathepsin L (rhCathepsin L) was purchased from R&D Systems;
Gly-Arg-AMC (hydrochloride) was purchased from CAYMAN CHEMICAL COMPANY.
1× activation buffer: 5 mM DTT 0.01% (V/V) Triton X-100 (preparation for current use);
1× assay buffer: 50 mM NaCl 5 mM DTT 0.01% (V/V) Triton X-100 (preparation for current use);
1× activation buffer was used to dilute recombinant human cathepsin C/DPP1 enzyme and recombinant human cathepsin L (rhCathepsin L) enzyme to concentrations of 2 ng/μL and 0.4 ng/μL, respectively; equal volume of two working solutions of enzyme was taken, mixed well and incubated at 25° C. for 60 minutes;
the compounds to be tested were 5-fold diluted with a multi-channel pipette to the 8th concentration, i.e., diluted from 1 mM to 12.8 nM. Then 1× experimental buffer was used to dilute each compound to be tested by gradient into a 4% DMSO working solution. The working solution was added to corresponding wells for 5 μL/well, and duplicate experiment was set. The mixture was centrifuged at 1000 rpm for 1 minute;
5 μL/well of the enzyme mixture after incubation was taken and added to the white microwell plate. At this time, the amount of DPP1 enzyme in each well was 5 ng; 1× experimental buffer in 5 μL/well was added to the blank control well;
Gly-Arg-AMC (hydrochloride) was diluted to 25 μM with 1× assay buffer. The diluted mixture in 10 μL/well was added to a white microwell plate. The substrate concentration was 12.5 μM at this time, and the microplate was centrifuged in a centrifuge at 1000 rpm for 1 minute. […] After centrifugation, the microplate was covered with membrane and incubated at 25° C. for 60 minutes;
after incubation, fluorescence detection was performed using a multi-label analyzer with an excitation wavelength of 360 nm and an emission wavelength of 460 nm.
Using the equation (Sample−Min)/(Max−Min)×100% to convert the raw data into enzyme activity, the IC50 value might be obtained by curve fitting with four parameters (obtained by “log (inhibitor) vs. response—Variable slope” mode in GraphPad Prism).
Max: Contains recombinant human cathepsin C/DPP1, recombinant human cathepsin L (rhCathepsin L), and Gly-Arg-AMC (hydrochloride)
Min: No recombinant human cathepsin C/DPP1 and recombinant human cathepsin L (rhCathepsin L)

Sequence of DPP1 of U937 cells (P53634 25-134): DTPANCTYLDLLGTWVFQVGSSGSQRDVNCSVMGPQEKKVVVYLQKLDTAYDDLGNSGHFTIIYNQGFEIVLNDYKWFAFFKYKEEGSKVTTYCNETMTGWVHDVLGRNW
Sequence of DPP1 of U937 cells (P53634 231-394): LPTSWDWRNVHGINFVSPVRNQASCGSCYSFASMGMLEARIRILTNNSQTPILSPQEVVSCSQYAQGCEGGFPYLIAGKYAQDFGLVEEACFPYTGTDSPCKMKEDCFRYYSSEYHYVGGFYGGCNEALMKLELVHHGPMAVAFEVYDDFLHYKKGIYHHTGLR
Sequence of DPP1 of U937 cells (P53634 395-463): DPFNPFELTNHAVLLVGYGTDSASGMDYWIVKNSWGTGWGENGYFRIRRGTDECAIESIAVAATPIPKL

Structure (SMILES)	IC50 [1] [nM]	IC50 [2] [nM]
CN1Cc2cc(-c3ccc(C[C@@H](C#N)NC(=O)[C@@H]4CNCCCO4)cc3)ccc2C1=O [Compound 5]	9.32	28.3
Cn1ncc2ccc(-c3ccc(C[C@@H](C#N)NC(=O)[C@@H]4CNCCCO4)cc3)cc21 [Compound 2]	8.95	26.8
Cn1nnc2ccc(-c3ccc(C[C@@H](C#N)NC(=O)[C@@H]4CNCCCO4)cc3)cc21 [Compound 4]	1.32	10.8
CN1CCC(n2ncc3ccc(-c4ccc(C[C@H](C#N)NC(=O)[C@@H]5CNCCCO5)c(F)c4)cc32)CC1 [Compound 24]	3.12	1
CC(C)n1ncc2ccc(-c3ccc(C[C@@H](C#N)NC(=O)[C@@H]4CNCCCO4)c(F)c3)cc21 [Compound 10]	8.53	4.39
Cn1nnc2ccc(-c3ccc(C[C@@H](C#N)NC(=O)[C@@H]4CNCCCO4)c(F)c3)cc21 [Compound 7]	2.49	2.52
N#C[C@H](Cc1ccc(-c2ccc3cnn(C4CCOCC4)c3c2)cc1F)NC(=O)[C@@H]1CNCCCO1 [Compound 12]	1.81	2.38
CC(C)n1ncc2ccc(-c3ccc(C[C@@H](C#N)NC(=O)[C@@H]4CNCCCO4)cc3)cc21 [Compound 9]	–	14

Second part, the compound after the results:

IC50 [1] [nM]	IC50 [2] [nM]	Structure (SMILES)
–	22.5	Cc1cc(-c2ccc3cnn(C)c3c2)ccc1C[C@H](C#N)NC(=O)[C@@H]1CNCCCO1 [Compound 17]
9.27	17.3	N#C[C@@H](Cc1ccc(-c2cnc3cc[nH]c3c2)cc1F)NC(=O)[C@@H]1CNCCCO1 [Compound 21]
2.79	28.1	N#C[C@@H](Cc1ccc(-c2ccc3nccn3c2)cc1F)NC(=O)[C@@H]1CNCCCO1 [Compound 14]
–	0.76	N#C[C@@H](Cc1ccc(-c2ccc3cnn(C4CCNCC4)c3c2)cc1F)NC(=O)[C@@H]1CNCCCO1 [Compound 22]
5.43	1.23	Cn1nc(F)c2ccc(-c3ccc(C[C@H](C#N)NC(=O)[C@@H]4CNCCCO4)c(F)c3)cc21 [Compound 18]
–	3.65	CN1CCOc2ccc(-c3ccc(C[C@H](C#N)NC(=O)[C@@H]4CNCCCO4)c(F)c3)cc21 [Compound 15]
8.7	4.55	N#C[C@@H](Cc1ccc(-c2cc(F)c3cn[nH]c3c2)cc1F)NC(=O)[C@@H]1CNCCCO1 [Compound 19]
6.33	20.4	N#C[C@H](Cc1ccc(-c2ccc3nccn3c2)cc1F)NC(=O)[C@@H]1CNCCCO1 [Compound 13]
–	9.18	Cn1ncc2ccc(-c3ccc(C[C@H](C#N)NC(=O)[C@@H]4CNCCCO4)c(Cl)c3)cc21 [Compound 16]
